Calls of active or inactive are those of the source. No cut-off for these calls is given here.
Tests used:
[1] = tested on: MDA-MB-231; experiment: Induction of apoptosis in human MDA-MB-231 cells assessed as early apoptotic cells at 12.5 uM incubated for 48 hrs by AnnexinV and 7AAD staining based flow cytometric analysis; type: functional, cell-based
[2] = tested on: MDA-MB-231; experiment: Antiproliferative activity against human MDA-MB-231 cells assessed as inhibition of cell growth at >25 uM incubated for 24 hrs by MTT assay relative to control; type: functional; conditions: dose microM >25
[3] = tested on: MDA-MB-231; experiment: Induction of apoptosis in human MDA-MB-231 cells assessed as late apoptotic cells at 12.5 uM incubated for 48 hrs by AnnexinV and 7AAD staining based flow cytometric analysis; type: functional, cell-based
[4] = tested on: MDA-MB-231; experiment: Antiproliferative activity against human MDA-MB-231 cells incubated for 48 hrs by MTT assay; type: functional, cell-based; conditions: MDA-MB-231, 48 h
[5] = tested on: 5637; experiment: Antiproliferative activity against human 5637 cells assessed as inhibition of cell growth incubated for 24 hrs by MTT assay; type: functional, cell-based; conditions: Homo sapiens, 5637, 24 h
[6] = tested on: MDA-MB-231; experiment: Antiproliferative activity against human MDA-MB-231 cells at >12.5 uM incubated for 48 hrs by MTT assay; type: functional, cell-based; conditions: dose microM >12.5, time 48.0 hrs
[7] = tested on: MDA-MB-231; experiment: Induction of cell cycle arrest in human MDA-MB-231 cells assessed as accumulation in S phase at 12.5 uM incubated for 48 hrs by PI staining based flow cytometric analysis (reference value: 19.35%); type: functional
[8] = tested on: MDA-MB-231; experiment: Induction of cell cycle arrest in human MDA-MB-231 cells assessed as accumulation in G0/G1 phase at 12.5 uM incubated for 48 hrs by PI staining based flow cytometric analysis (reference value: 51.75%); type: functional
[9] = tested on: MDA-MB-231; experiment: Antiproliferative activity against human MDA-MB-231 cells incubated for 24 hrs by MTT assay; type: functional, cell-based; conditions: MDA-MB-231, 24 h
[10] = tested on: MDA-MB-231; experiment: Induction of cell cycle arrest in human MDA-MB-231 cells assessed as accumulation in G2/M phase at 12.5 uM incubated for 48 hrs by PI staining based flow cytometric analysis (reference value: 19.7%); type: functional
[11] = tested on: MCF7; experiment: Antiproliferative activity against human MCF7 cells assessed as inhibition of cell growth; type: functional, cell-based
[12] = tested on: MDA-MB-231; experiment: Antiproliferative activity against human MDA-MB-231 cells at 6.25 to 100 uM incubated for 24 to 48 hrs by MTT assay; type: functional, cell-based; conditions: dose microM 6.25-100, time hrs 24-48

SMILES	Activity [1]	inhibition (INH) [2] [%]	Activity [3]	IC50 [4] [µM]	IC50 [5] [µM]	Activity [6]	Activity [7] [%]	Activity [8] [%]	IC50 [9] [µM]	Activity [10] [%]	IC50 [11] [µM]	Activity [12]
Cc1cn([C@H]2C[C@H](n3cc(CCCO)nn3)[C@@H](C[Te]c3ccccc3)O2)c(=O)[nH]c1=O	inactive	50	inactive	9.62	1.99	Active	28.2	44.9	21.6	19.95		
CNCCC(Oc1ccc(C(F)(F)F)cc1)c1ccccc1 (configuration not stated) [FLUOXETINE]											0.01	
Cc1cn([C@H]2C[C@H](n3cc(CO)nn3)[C@@H](C[Te]c3ccccc3)O2)c(=O)[nH]c1=O	inactive	50	inactive	11.8	8.09	Active	27.3	40.55	24.9	16.9		
Cc1cn([C@H]2C[C@H](N=[N+]=[N-])[C@@H](CO)O2)c(=O)[nH]c1=O												inactive

— ChEMBL document CHEMBL4665723, “Evaluation of the effect of synthetic compounds derived from azidothymidine on MDA-MB-231 type breast cancer cells” (Bioorg Med Chem Lett, 2020)
